From patent US11987835B2, “Amino acid-sensing diguanylate cyclase and methods of use” (priority 2019, dated 2024)
Where a chain is given by its changes, count along the chain named.

Legend:
[1] = tested on: SpdE diguanylate cyclase activity in Aer01; test: Intracellular cyclic di-GMP quantification; format: cell-based, Aeromonas veronii; conditions: WT Aer01, 1 mM amino acid, ~4 hrs, versus no ligand
Experimental: Intracellular cyclic di-GMP quantification. […] Cultures were incubated, shaking, at 30° C. for 4 hours. Sample OD600 was measured and the entire volume pelleted. Sample pellets were resuspended in 300 μL ice cold extraction buffer (40/40/20 acetonitrile/methanol/water+0.1 N formic acid), iced for 30 min, then pelleted at maximum speed in tabletop microcentrifuge for 10 min. The supernatant was transferred to a new tube and stored at −80° until being vacuum concentrated until completely evaporated.
Dried samples were resuspended in 100 μL Ultra Performance liquid chromatography-grade water and centrifuged for two minutes at 18,000×g (Eppendorf® Centrifuge 5242R). The debris-free supernatants were moved to LCMS Certified Clear Glass 12×32 mm screw neck max recovery vials (Waters®). Ten microliters of each sample were analyzed using LC-MS/MS on a Quattro Premier XE mass spectrometer coupled with an Acquity Ultra Performance LC system (Waters®). Cyclic di-GMP was detected with electrospray ionization using multiple reaction monitoring in negative-ion mode at m/z 689.16→344.31. […]
In the case of SpdE, ligand binding to the PAS/Cache was hypothesized to regulate SpdE diguanylate cyclase activity, thereby altering intracellular levels of c-di-GMP. To test this, WT and ΔspdE Aer01 were incubated in the presence or absence of amino acid ligands for ˜4 hrs, then pelleted and lysed the cells to extract and quantify intracellular c-di-GMP.

[2] = tested on: Aer01 SpdE tandem PAS/dCache region (residues 37-287); test: Thermofluor (thermal shift) assay, Aer01 SpdE; format: binding, Aeromonas veronii; conditions: 10 mM pure amino acid; for thermal shift (ΔTm) in words: replicate ΔTm data
Experimental: (§1) Thermofluor Assay. The periplasmic portion of SpdE was cloned, expressed and purified in E. coli. Thermofluor assays were performed using a Thermo Fisher Scientific StepOnePlus Real-time PCR instrument. Each 20 μL sample contained 0.1 mg/mL SpdE protein, 4× SYPRO Orange dye, 165 mM NaCl, 80 mM Tris pH 7.5 and 10 mM ligand (free amino acid dissolved in water). All samples were done in triplicate and repeated 2-3 times on different days. All reagents and steps were performed at 4° C. and placed in 96 well PCR plates. The PCR plate was slowly heated (˜0.03° C./sec) from 4° C. to 80° C. in the StepOnePlus instrument and fluorescent measurements were taken every 8.5 sec. The resultant thermal shift curves were analyzed to find the inflexion points, which correspond to the melting temperature (Tm) of the protein (with or without ligand). Inflexion points were determined in Microsoft Excel by calculating the half way point between the minimum fluorescence value prior to fluorescence increase and the maximum fluorescence value. The Tm difference between protein with and without ligand was calculated and plotted to determine the thermal stability shift as a proxy for ligand binding.
In order to identify SpdE ligands, a thermal shift assay was conducted using 96-well Biolog Phenotype MicroArray plates as a high-throughput approach to screen compounds for ligand candidates. Using heterologously expressed and purified tandem PAS/dCache region of the protein (residues 37-287), ˜200 compounds were screened for ones that conferred a significant shift in protein thermal stability (see Table 4). […] For each curve, the melting temperature (Tm) was determined (brown circles), which corresponds to the midpoint of protein unfolding. The ΔTm (difference between test Tm and water control Tm) was calculated for each amino acid condition.

Aer01 [3] = format: cell-based, Aeromonas veronii
Experimental: Live imaging and quantification of Aer01 motility. […] EM containing proline or valine (pH adjusted to 7.8 with HCl/NaOH) was added to the wells to generate the desired final concentrations of amino acid (0, 1 nM, 10 nM, 100 nM, 1 μM, or 1 mM) and cell densities of OD 0.1, each performed in triplicate. The tray was covered by parafilm and incubated at 30° C. for 5 hours. Cells were imaged between hour 5-6. Prior to imaging, bacterial samples were moved to a temperature-controlled box housing the microscope, heated to 30° C. 2 ul of bacteria from treatments were applied to a well slide (MP Biomedicals 10-well multitest slides #096041805), covered with a coverslip, and imaged immediately. Videos of bacteria were captured using a Nikon Eclipse Ti inverted microscope on the GFP channel using 20× magnification at 39 frames per second. Videos of treated bacteria were analyzed with particle tracking software (Parthasarathy, Nature Methods 9:724-236, 2012) using these settings: “objects” were identified using bpfilter 3, nsize 7, and gradobjsize 0. A standard threshold of 3.99-6 was applied, depending on the degree of background. Motile bacteria were defined as objects tracked over at least 1 s (39 frames) with a standard deviation in position of pixels/frame of at least 1.
To do this, Aer01 was incubated in medium+/−ligand (ranging between 0 and 1 mM) then wet-mounted and imaged on an inverted microscope.

[4] = tested on: Aer01 colonization of larval zebrafish gut; test: Bacterial competitions in vivo (competitive index); conditions: GF zebrafish
Experimental: Bacterial competitions in vivo. For in vivo bacterial competitions, strains (purified evolved isolates, or Aer01 genetic variants) were grown overnight in TSB from freezer stocks. 1 ml of the overnight cultures were pelleted (8,700 rcf, 2 min), then resuspended in 1 ml sterile EM. Competing strains were mixed, then added to flasks of 4 dpf GF (or CV fish) WT fish at ˜10^6 CFU/ml. For all competitions, sfGFP-tagged Aer01 was used as the “reference” strain. […] At 7 dpf, fish intestines were dissected as described above, and each intestine transferred into a 1.6 ml tube containing 500 μl sterile EM and ˜100 μl bullet beads, then bullet blended as described above. Homogenized samples were diluted appropriately in sterile EM, spread plated on TSA plates, incubated at 30° C. for 1-2 days, and the colonies counted. Strains were differentiated by fluorescence microscopy. Competitive index (CI) was calculated by dividing the strain ratio (test strain divided by reference strain) in the gut at the end of the competition by the strain ratio in the inoculum ((test/reference)gut/(test/reference)inoculum) (FIG. 1). The limit of detection is 5 CFU/gut; for samples were one strain was below the limit of detection, the abundance was set to 5 CFU in order to calculate a CI; this was the case for few of the samples.
To test whether WT motility, and therefore immigration into the host, could be increased with addition of ligands, competitions were performed as previously described, this time supplementing the inoculum and flask medium with SpdE ligand.

Aer01 [5] = format: cell-based, Aeromonas veronii; remark: listed apart in the source
Experimental: Exploration Assay. Overnight cultures (TSB) of Aer01 Strains were pelleted (1 mL), and resuspended in 1 ml sterile EM. […] The cultures were incubated, shaking, at 30° C. for 3 hours. An aliquot of each culture was passed through a 0.2 μM filter (Corning® Costar® Spin-X® centrifuge tube filters) to generate cell-free supernatant. To a sterile 96-well plate round-bottom plate, 80 μL of unfiltered culture was added to each well to include five replicates for each condition. To another sterile 96-well plate round-bottom plate, 80 μL of the cell-free supernatant was added to each well to replicate the layout of the culture plate. Using a Rainin Liquidator™ 96-channel benchtop pipettor, 5 μL of the cell-free supernatant was pulled up into 20 μL Rainin pipette tips. These tips then were lowered down into the wells of the culture plate so the tips were submerged to half the depth of the culture volume in the wells. This set-up was incubated at room temperature for 30 min, during which time the cells in the culture can swim up into the supernatant in the pipette tips. After incubation, the contents of the tips were ejected into the wells of a sterile 96-well plate (Corning, flat-bottom, #3595) to which 195 μL of sterile TSB medium was added to each well. This plate was immediately placed in a FLUOstar Omega microplate reader (BMG Labtech, Offenburg, Germany) and growth curves monitored by measuring absorbance (600 nm) every 10 min for 12-16 hrs, with 30° C. incubation and constant shaking. The growth curves were plotted and the times at which the absorbance passed 0.5 was determined for each plot. The time difference between a particular condition and a reference condition (as indicated in FIG. 5C) represents the “exploration response” of Aer01 in that condition.
An “exploration assay” was used to measure population-level motility. For this assay Aer01 was incubated in the presence/absence of amino acid ligand (1 mM) for˜4 hrs, then the culture was added to the wells of a 96-well plate and pipette tips filled with the cell-free supernatant of the same cultures was lowered into the wells (FIG. 13). During a 30 min incubation period the Aer01 cells in the wells swam up into the pipette tips. […] To quantify the number of cells in the pipette tips after the 30 min exploration time, the contents of the pipette tips were ejected into the wells of a 96-well plate containing rich media and growth curves were monitored. […] This time difference between conditions, “exploration response,” was calculated to compare across many strains and conditions (FIG. 12C).

Aer01 [6] = format: cell-based, Aeromonas veronii; remark: listed apart in the source
Experimental: For light-sheet microscope-based imaging and determination of cellular swim speeds, overnight cultures (TSB) of strains (dTomato-tagged Aer01 and dTomato-tagged ΔspdE) were washed twice with sterile EM, as above. […] FC-EM was generated by collecting the flask EM of GF 5 or 6 dpf zebrafish larvae, filter-sterilizing and storing at 4° C. A glass cuvette was filled with culture and imaged on a custom-built light sheet fluorescence microscope, as previously described (Taormina et al., Biol. Bull. 223:7-20, 2012). The light sheet optically sections bulk samples in the center of the cuvette, so as not to constrain the motility of the imaged bacteria by surfaces. Movies in a single optical plane were captured for a duration of 20 seconds (frame rate of 30 frames/sec) with excitation light provided by a 561 nm solid state laser (Coherent Sapphire 20 mW; all strains expressed dTomato fluorescent protein). […] As above, particle tracking software, which uses a radial-symmetry-based algorithm, was used to analyze images (Parthasarathy, Nature Methods 9:724-726, 2012). The following parameters were used: bpfiltsize=7, nsize=7, gradobjsize=7, 1/nhood=true. […]
Therefore, the cells were next imaged in a cuvette on a light sheet microscope where they would be recorded within a three-dimensional space and not impeded by surfaces. […]

Aer01 [7] = test: Biofilm assay (crystal violet); format: cell-based, Aeromonas veronii; conditions: WT Aer01, 1 mM ligand, 48 hrs
Experimental: Biofilm Assay. […] To the wells of a sterile 96-well plate (Corning, flat-bottom, #3595), 150 μL of each resuspended culture was added, in triplicate. A blank control well was added for each condition using the appropriate uninoculated media. This plate was incubated at 30° C., stationary, for 48 hours. After incubation, the biofilms were quantified using a standard crystal violet biofilm staining procedure. […] Briefly, the supernatant was removed from each well, then the wells gently rinsed three times with 150 μL sterile EM. Then, 150 μL 0.1% crystal violet was added to each well and the plate was incubated at room temperature for 10 minutes, followed by five rinses with 150 μL sterile EM. To destain, 150 μL 95% ethanol was added to each well and the plate was incubated at room temperature for 10 minutes. Each well was mixed well and the contents transferred to a clean 96-well plate and the absorbance (570 nm) was read on a FLUOstar Omega microplate reader (BMG Labtech, Offenburg, Germany).

[8] = Thermofluor assay with Aer01 SpdE single residue variants; format: binding, Aeromonas veronii; conditions: single residue change versus wild-type Aer01 SpdE PAS/dCache
Experimental: as §1, with “binding. […]” for “binding.”

[9] = SpdE-NarQ chimeric sensor β-galactosidase reporter; format: cell-based, Escherichia coli; conditions: expected from sensitivity of SpdE-dependent responses
Description: SpdE tandem PAS/dCache is a sensitive and specific sensor of particular amino acids. This domain is utilized for the design of novel biosensors of amino acid ligands by engineering chimeric reporter proteins fusing them to the signaling domain of an Escherichia coli protein, NarQ. NarQ is a nitrate/nitrite sensor which contains a C-terminal histidine kinase signaling domain. Here, the SpdE-NarQ hybrid protein includes the tandem PAS/dCache sensing domain (proximal and distal PAS/Cache domains) and both transmembrane domains of SpdE, and the HAMP and histidine kinase signaling domain of NarQ (FIG. 21A). When activated, the NarQ signaling domain auto-phosphorylates, then transfers the phosphoryl group to NarL, a transcriptional activator that binds nitrate-responsive promotors such as narG. In this system LacZ, a β-galactosidase, is under the control of the narG promoter, therefore activation of NarL results in expression of LacZ and increased β-galactosidase activity. The β-galactosidase activity is quantified via a colorimetric assay. Based on the sensitivity of SpdE-dependent responses in the assays disclosed herein, this hybrid protein is expected to detect ligand concentrations of 10 μM or less. […] Therefore, β-galactosidase activity will decrease with increasing ligand concentrations (e.g., FIG. 21B).

For `NCC(=O)O` [Glycine, glycine], the “intracellular c-di-GMP” value [1] was “no change” and the “thermal shift (ΔTm) in words” value [2] was “negative amino acid control”.

In the case of `C[C@H](N)C(=O)O` [alanine], the “thermal shift (ΔTm) in words” value [2] is reported as “smaller degree”.

In the case of `CC[C@H](C)[C@H](N)C(=O)O` [isoleucine], the “thermal shift (ΔTm) in words” value [2] is reported as “largest shifts”.

In the case of `CC(C)C[C@H](N)C(=O)O` [leucine], the “thermal shift (ΔTm) in words” value [2] is reported as “smaller degree”.

With `CSCC[C@H](N)C(=O)O` [methionine] the “thermal shift (ΔTm) in words” value [2] was “smaller degree”.

With `O=C(O)[C@@H]1CCCN1` [proline] the “intracellular c-di-GMP” value [1] was “significantly lower”, the motility (Aer01 [3]) was “little increase” and the “number of motile cells” value (Aer01 [3]) was “striking increase”. The “CI of ΔspdE versus WT” value ([4]; 100 nM and 10 nM proline) was “reduced CI but to a much lesser extent”, the “median CI (competitive index) of ΔspdE versus WT” value ([4]; ligand supplemented into inoculum and flask medium (1 mM proline)) was 2 and the “ΔTm (difference between test Tm and water control Tm)” value [2] was roughly 20 degrees. The “thermal shift (ΔTm) in words” value [2] was “largest shifts”, the “motility response in exploration assay” value (Aer01 [5]; WT Aer01, 100 nM proline) was “a response was measured” and the exploration response (Aer01 [5]; WT Aer01, 1 mM ligand versus WT without ligand, mean) was 28.9 min. For the same molecule, the “exploration response across proline concentrations” value (Aer01 [5]; WT Aer01, between 100 nM and 1 mM proline) was “dose-dependent response trend”, the “cellular velocity (average of median values)” value (Aer01 [6]; WT Aer01, 1 mM proline (12.6 μm/sec without ligand)) was 24.5 μm/sec and the cellular velocity change (Aer01 [6]; ΔspdE, 1 mM proline) was “did not increase”. For the same molecule, the biofilm formation (Aer01 [7]) was “more robust biofilms in the absence of ligand”.

In the case of `C[C@@H](O)[C@H](N)C(=O)O` [threonine], the “thermal shift (ΔTm) in words” value [2] is reported as “smaller degree”.

B1: W140/146A: Aer01 SpdE PAS/dCache variant, single residue change in the distal PAS/Cache (protein, listed as Aeromonas veronii)
chain: MSPAKPKNTWSLITRMRLGFLLLFIPVLLLGSIYYLHMERTLRHEQQQYLIARNTQYFHTLIEPYLATLKRQFTLIYQQVNYRDFSGPEIRNGERYLQQWQAYHKVMELDYVYVGTEHRKMLIHPSWQADEKFDPRTRPAYLLAASHPGQIVWTDPYYDYTLGTLTMALARVIKDPDGKRVGVLSLDTQLTPLASWLNSRHAQSHHLGNGYQLLLNHDGLVLAHPDRERVFKPLAHPDWLARMQQPQGFFLDDASGLMVSYYRIPEQRWILLSVEPTASMQQVIDSVSINVQLMIAVACFFYLLLALLWARYFRRMLGEITLLIRTSRSGGTAYHGSRMLELAKVYEEMDAASQDFAQIRQQANQDKLTGLYNRRFFDECLQKQLNSGAPFGVVMFDLDDFKRVNDTHGHQAGDVVLKRVSKLGMNLFHEWGWFCRYGGEELVLIFRYGEEQPMLPSLLEAFRLGVEQLEWREPDLTITISGGVAFSRSGLSAKELVELADKGVYQAKREGKNRICFPLRHTPHQSAEEGVPAFGETQQQTNEG
With B1 the “ligand binding (thermal shift)” value [8] was “reduction in ligand binding”.

B2: Y157/163A: Aer01 SpdE PAS/dCache variant, single residue change in the distal PAS/Cache (protein, listed as Aeromonas veronii)
chain: B1 chain with A140W, Y157A
With B2 the “ligand binding (thermal shift)” value [8] was “reduction in ligand binding”.

B3: SpdE-NarQ hybrid protein: SpdE tandem PAS/dCache and transmembrane domains fused to HAMP and histidine kinase signaling domain of E. coli NarQ (protein)
chain: MSPAKPKNTWSLITRMRLGFLLLFIPVLLLGSIYYLHMERTLRHEQQQYLIARNTQYFHTLIEPYLATLKRQFTLIYQQVNYRDFSGPEIRNGERYLQQWQAYHKVMELDYVYVGTEHRKMLIHPSWQADEKFDPRTRPWYLLAASHPGQIVWTDPYYDYTLGTLTMALARVIKDPDGKRVGVLSLDTQLTPLASWLNSRHAQSHHLGNGYQLLLNHDGLVLAHPDRERVFKPLAHPDWLARMQQPQGFFLDDASGLMVSYYRIPEQRWILLSVEPTASMQQVIDSVSINVQLMIAVACFFYLLLALLWLNQLVTASQRIEHGQFDSPPLDTNLPNELGLLAKTFNQMSSELHKLYRSLEASVEEKTRDLHEAKRRLEVLYQCSQALNTSQIDVHCFRHILQIVRDNEAAEYLELNVGENWRISEGQPNPELPMQILPVTMQETVYGELHWQNSHVSSSEPLLNSVSSMLGRGLYFNQAQKHFQQLLLMEERATIARELHDSLAQVLSYLRIQLTLLKRSIPEDNATAQSIMADFSQALNDAYRQLRELLTTFRLTLQQADLPSALREMLDTLQNQTSAKLTLDCRLPTLALDAQMQVHLLQIIREAVLNAMKHANASEIAVSCVTAPDGNHTVYIRDNGIGIGEPKEPEGHYGLNIMRERAERLGGTLTFSQPSGGGTLVSISFRSAEGEESQLM
modifications: SpdE-NarQ fusion protein
Molecule B3 has a detectable ligand concentration [9] of no more than 10 µM.
